Data from patent publication US10335388B2, “Combination therapy of a HIF-2-alpha inhibitor and an immunotherapeutic agent and uses thereof” (PELOTON THERAPEUTICS, INC., priority 2015, dated 2019).
Read-outs that look alike come from different tables or passages of the source.

What was measured:
[1] = system: 786-O cells; experiment: VEGF ELISA assay; format: cell-based; conditions: Homo sapiens, 786-0
Procedure: Each concentration was plated in duplicate. About 20 hours later, medium was removed by suction and each well was supplied with 180 μL of growth medium. About 20 µl freshly-made 10× compound stocks were added to each well. […] The EC50 was calculated by GraphPad Prism using the dose-response-inhibition (four parameter) equation. The cell-seeded plate was then subjected to CellTiter-Glo luminescence cell viability assay (Promega) by adding 50 μL of Celltiter Glo reagent into each well and shaking the plate for 8 minutes at 550 rpm (Thermomixer R, Eppendorf) then the luminescence signal immediately read in a plate reader (3 second delay, 0.5 second/well integration time, Synergy 2 multi Detection Microplate reader).

[2] = system: 786-O-Hif-Luc cells; experiment: Luciferase assay (HIF responsive element reporter); conditions: 24 h
Procedure: A pool of infected cells were then selected against 2 μg/mL of puromycin (P8833, Sigma) for 10 days followed by limited dilution to select single clones.
Each concentration was tested in triplicate. After about 24 hours, luciferase activity was determined using ONE-Glo Luciferase Assay Reagent (E6110, Promega) following the manufacturer's recommended procedure. EC50 were calculated using Dotmatics software.

[3] = target: T1, HIF-2α HIS TAG-PASB Domain (Homo sapiens, UniProt Q99814); experiment: HIF-2α Scintillation Proximity Assay (SPA); format: binding; conditions: displacement of tritiated probe Compound 183
T1 construct: 100 nM HIF-2α HIS TAG-PASB Domain
Procedure: The total assay volume was about 100 μL in the following configuration: 2 μL compound in 100% DMSO, 88 μL buffer with protein and probe and 10 μL of SPA beads. […] The percent inhibition was determined and IC50 values were calculated using the Dotmatics system based on the following equation: % inhibition=[(high control−sample)/(high control−low control)]×100.

[4] = read-out: Mean Luciferase EC50 (nM)
[5] = read-out: Mean Luciferase EC50 (nM), 786-O-Hif-Luc cells, about 24 hours

T1 sequence (Q99814 240-350 limits assumed): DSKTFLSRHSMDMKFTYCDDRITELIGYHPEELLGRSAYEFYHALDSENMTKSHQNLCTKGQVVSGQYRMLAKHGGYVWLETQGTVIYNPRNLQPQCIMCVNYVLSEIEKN

Structure (SMILES) | EC50 [2, 4] [nM] | IC50 [3] [nM] | also measured
O=S(=O)(c1ccc(Oc2cc(F)cc(Cl)c2)c2c1[C@H](O)CC2)C(F)F [Compound 1] | – | – | EC50 [1]: 250 to 1000 nM
C[C@H]1C[C@@H](O)c2c(S(=O)(=O)C(F)F)ccc(Oc3cc(F)cc(Cl)c3)c21 [Compound 7a] | 250 to 1000 | – | –
O=S(=O)(c1ccc(Oc2cc(F)cc(Cl)c2)c2c1C(O)CC2)C(F)F (stereo not shown) [Compound 17] | – | – | EC50 [1]: 50 to 249 nM
O=S(=O)(c1ccc(Oc2cc(F)cc(Cl)c2)c(Cl)c1CO)C(F)F [Compound 41] | 250 to 1000 | – | EC50 [1]: 250 to 1000 nM
N#Cc1cc(F)cc(Oc2ccc(S(=O)(=O)C(F)(F)F)c3c2CC[C@H]3O)c1 [Compound 57] | 50 to 249 | – | –
N#Cc1ccc(Oc2cc(F)cc(F)c2)c2c1[C@H](O)C(F)(F)C2 [Compound 67] | – | – | EC50 [1]: 50 to 249 nM
N#Cc1cc(F)cc(Oc2ccc(S(=O)(=O)C(F)F)c3c2CCC3O)c1 (stereo not shown) [Compound 78] | – | – | EC50 [1]: 250 to 1000 nM
CC(=NO)c1c(S(=O)(=O)C(F)(F)F)ccc(Oc2cc(F)cc(Cl)c2)c1Br [Compound 106] | – | 250 to 1000 | –
O=S(=O)(c1ccc(Oc2cc(F)cc(Cl)c2)c(Br)c1C=NO)C(F)(F)F [Compound 107] | – | 50 to 249 | EC50 [2, 5]: 250 to 1000 nM
O=S(=O)(c1ccc(Oc2cc(F)cc(Cl)c2)c(C(F)F)c1)C(F)(F)F [Compound 124] | 250 to 1000 | – | EC50 [1]: 250 to 1000 nM
N#Cc1c(Oc2cc(F)cc(Cl)c2)ccc(S(=O)(=O)C(F)(F)F)c1F [Compound 153] | – | 50 to 249 | –
N#Cc1cc(F)cc(Oc2ccc(S(=O)(=O)C(F)F)c3c2CC[C@H]3O)c1 [Compound 155] | 50 to 249 | – | EC50 [1]: 50 to 249 nM
N#Cc1cccc(Oc2ccc(S(=O)(=O)C(F)F)c3c2CC[C@H]3O)c1 [Compound 156] | 250 to 1000 | – | –
CS(=O)(=O)c1ccc(Oc2cc(F)cc(F)c2)c2c1C(O)C(F)(F)C2 (stereo not shown) [Compound 159] | – | < 50 | EC50 [1]: < 50 nM; EC50 [2, 5]: < 50 nM
CS(=O)(=O)c1ccc(Oc2cc(F)cc(C#N)c2)c2c1[C@H](N)C(F)(F)C2 [Compound 165] | 50 to 249 | – | –
N#Cc1cc(Cl)cc(Oc2ccc(S(=O)(=O)CF)c3c2CC(F)(F)[C@H]3O)c1 [Compound 167] | < 50 | – | –
CS(=N)(=O)c1ccc(Oc2cc(F)cc(F)c2)c2c1[C@H](O)C(F)(F)C2 (stereo partly shown) [Compound 192] | – | 50 to 249 | EC50 [2, 5]: 250 to 1000 nM
N#Cc1cc(F)cc(Oc2ccc(S(=O)(=O)C(F)F)c3c2CCC3F)c1 (stereo not shown) [Compound 202] | – | 250 to 1000 | EC50 [2, 5]: > 1000 nM
CCS(=O)(=O)c1ccc(Oc2cc(F)cc(C#N)c2)c2c1[C@H](O)C(F)(F)C2 [Compound 206] | 50 to 249 | – | –

Structure (SMILES) | EC50 [2, 4] [nM] | IC50 [3] [nM] | also measured
CS(=O)(=O)c1ccc(Oc2cc(F)cc(C#N)c2)c2c1C(O)C(F)(F)C2 (stereo not shown) [Compound 223] | 50 to 249 | – | –
CS(=O)(=O)c1ccc(Oc2cc(F)cc(C#N)c2)c2c1[C@@H](O)C(F)(F)C2 [Compound 226] | > 1000 | – | –
[2H]C([2H])([2H])S(=O)(=O)c1ccc(Oc2cc(F)cc(C#N)c2)c2c1[C@]([2H])(O)C(F)(F)C2 [Compound 229] | < 50 | – | –
CS(=O)(=O)c1ccc(Oc2cc(F)cc(C#N)c2)c2c1[C@H](O)[C@H](F)C2 [Compound 231] | < 50 | – | –
CS(=O)(=O)c1ccc(Oc2cc(F)cc(C#N)c2)c2c1C(O)C(F)C2 (stereo not shown) [Compound 232] | < 50 | – | –
CS(=O)(=O)c1ccc(Oc2cc(Cl)cc(C#N)c2)c2c1[C@H](O)C(F)(F)C2 [Compound 234] | < 50 | – | EC50 [1]: 50 to 249 nM
N#Cc1cncc(Oc2ccc(S(=O)(=O)C(F)(F)F)c3c2CC(F)(F)[C@H]3O)c1 [Compound 235] | < 50 | – | –
[2H][C@]1(O)c2c(S(C)(=O)=O)ccc(Oc3cc(F)cc(C#N)c3)c2CC1(F)F [Compound 247] | < 50 | – | –
CNS(=O)(=O)c1ccc(Oc2cc(F)cc(F)c2)c2c1[C@H](O)C(F)(F)C2 [Compound 251] | 50 to 249 | – | –
N#Cc1cc(F)cc(Oc2ccc(S(N)(=O)=O)c3c2CC(F)(F)[C@H]3O)c1 [Compound 252] | 50 to 249 | – | –
CNS(=O)(=O)c1ccc(Oc2cc(F)cc(C#N)c2)c2c1[C@H](O)C(F)(F)C2 [Compound 254] | 50 to 249 | – | –
NS(=O)(=O)c1ccc(Oc2cc(F)cc(F)c2)c2c1[C@H](O)C(F)(F)C2 [Compound 256] | < 50 | – | –
CS(=O)(=O)c1ccc(Oc2cc(F)cc(C#N)c2)c2c1[C@H](O)[C@@H](F)C2 [Compound 271] | 250 to 1000 | – | –
CS(=O)(=O)c1ccc(Oc2cc(F)cc(C#N)c2)c2c1[C@H](O)[C@H](F)[C@@H]2F [Compound 289, 3-[(1S,2S,3R)-2,3-difluoro-1-hydroxy-7-methylsulfonyl-indan-4-yl]oxy-5-fluoro-benzonitrile] | < 50 | – | –
N#Cc1cc(F)cc(Oc2ccc(S(=O)(=O)C(F)(F)F)c3c2CC(F)(F)[C@H]3N)c1 [Compound 290] | 50 to 249 | – | –
N#Cc1cc(F)cc(Oc2ccc(S(N)(=O)=O)c3c2[C@@H](F)C(F)(F)[C@H]3O)c1 [Compound 338] | < 50 | – | –
N#Cc1cc(F)cc(Oc2ccc(S(N)(=O)=O)c3c2[C@H](F)C(F)(F)[C@H]3O)c1 [Compound 339] | 250 to 1000 | – | –
N#Cc1cc(F)cc(Oc2ccc3c(c2C(F)F)[C@@H](N)C(F)(F)S3(=O)=O)c1 [Compound 387] | – | 50 to 249 | –
O=S(=O)(c1ccc(-c2cccc(O)c2)c2c1[C@H](O)C(F)(F)C2)C(F)(F)F [Compound 564] | – | > 1000 | –

Structure (SMILES) | EC50 [2, 4] [nM] | IC50 [3] [nM] | also measured
O=S(=O)(c1ccc(OC2CCNCC2)c2c1C(O)C(F)(F)C2)C(F)(F)F (stereo not shown) [Compound 606] | – | > 1000 | –
O=S(=O)(c1ccc(OC2CC(O)C2)c2c1[C@H](O)C(F)(F)C2)C(F)(F)F (stereo partly shown) [Compound 644] | – | 250 to 1000 | EC50 [2, 5]: 250 to 1000 nM
O[C@H]1c2c(C(F)(F)F)ccc(OC(F)F)c2CC1F (stereo partly shown) [Compound 671] | – | > 1000 | –
CCCOc1ccc(S(=O)(=O)C(F)F)c2c1CC(F)(F)[C@H]2O [Compound 676] | – | 50 to 249 | EC50 [2, 5]: 50 to 249 nM
O=S(=O)(c1ccc(OCC(F)F)c2c1[C@H](O)C(F)(F)C2)C(F)F [Compound 677] | – | < 50 | EC50 [2, 5]: 50 to 249 nM
CCCOc1ccc(C2CC2)c2c1CC(F)(F)C2O (stereo not shown) [Compound 685] | – | > 1000 | –
N#CC1CCc2c(OCC(F)F)ccc(C(F)(F)F)c21 (stereo not shown) [Compound 691] | – | > 1000 | –
O[C@H]1c2c(C(F)(F)F)ccc(OCC(F)F)c2C[C@H]1F [Compound 696] | – | 50 to 249 | EC50 [2, 5]: 50 to 249 nM
CC(C)(C)OC(=O)N[C@H]1C[C@@H](Oc2ccc(S(=O)(=O)C(F)(F)F)c3c2CC(F)(F)[C@H]3O)C1 [Compound 722] | – | > 1000 | EC50 [2, 5]: > 1000 nM
O=S(=O)(c1ccc(OC[C@@H]2CC2(F)F)c2c1[C@H](O)C(F)(F)C2)C(F)(F)F [Compound 728] | – | < 50 | EC50 [2, 5]: < 50 nM
O=S(=O)(c1ccc(O[C@@H]2CCCc3cn[nH]c32)c2c1[C@H](O)C(F)(F)C2)C(F)(F)F [Compound 729] | – | > 1000 | –
O=S(=O)(CF)c1ccc(OC2CC(F)C2)c2c1[C@H](O)C(F)(F)[C@@H]2F (stereo partly shown) [Compound 742] | – | – | EC50 [1]: < 50 nM; EC50 [2, 5]: < 50 nM
O=S(=O)(CF)c1ccc(O[C@H]2C[C@H](F)C2)c2c1[C@H](O)C(F)(F)[C@@H]2F [Compound 742] | – | < 50 | –
CS(=O)(=O)c1ccc(OC[C@H]2CC2(F)F)c2c1[C@H](O)C(F)(F)[C@@H]2F [Compound 769] | – | 50 to 249 | EC50 [2, 5]: 250 to 1000 nM
CS(=O)(=O)c1ccc(OC2CCOCC2)c2c1[C@H](O)C(F)(F)C2 [Compound 775] | – | 250 to 1000 | EC50 [2, 5]: 250 to 1000 nM
N#C[C@H]1C[C@H](Oc2ccc(S(=O)(=O)C(F)(F)F)c3c2CC(F)(F)C3O)C1 (stereo partly shown) [Compound 786] | – | < 50 | EC50 [2, 5]: < 50 nM
CS(=O)(=O)c1ccc(OC2CCOCC2)c2c1[C@H](O)C(F)(F)[C@@H]2F [Compound 796] | – | < 50 | EC50 [2, 5]: 250 to 1000 nM
O=S(=O)(c1ccc(OC2CCCNC2)c2c1C(O)C(F)(F)C2)C(F)(F)F (stereo not shown) [Compound 797] | – | > 1000 | –
